According to patent publication US4450269A, “Mono-5-substituted-3-chloro-4H-1,2,6-thiadiazin-4-one antifungal agents” (FMC Corporation, priority 1980, dated 1984):
Read-outs that look alike come from different tables or passages of the source.

What was measured:
[1] = tested on: Alternaria solani; assay: Mycelial growth test; format: cell-based; conditions: Alternaria solani, 72 h, AS, read-out: Percent Fungus Growth Inhibition
[2] = tested on: Fusarium solani; assay: Mycelial growth test; format: cell-based; conditions: Fusarium solani, 72 h, PS, 72 hours, read-out: Percent Fungus Growth Inhibition
[3] = tested on: Sclerotinia fructicola; assay: Mycelial growth test; format: cell-based; conditions: Sclerotinia, 72 h, SF, read-out: Percent Fungus Growth Inhibition
Source text: | SF = Sclerotinia fructicola

[4] = tested on: Pyricularia oryzae; assay: microbe, parasite or virus in culture; format: cell-based; conditions: Pyricularia oryzae, 72 h
[5] = tested on: Pythium ultimum; assay: Mycelial growth test; format: cell-based; conditions: Globisporangium ultimum, 72 h, PU, read-out: Percent Fungus Growth Inhibition
[6] = tested on: Rhizoctonia solani; assay: Mycelial growth test; format: cell-based; conditions: Rhizoctonia solani, 72 h, RS, read-out: Percent Fungus Growth Inhibition
Source text: | RS = Rhizoctonia solani

[7] = tested on: Phytophthora infestans; assay: whole plant or invertebrate; format: in vivo; conditions: Phytophthora infestans, in Solanum lycopersicum, foliar, read-out: Percent Disease Control, foliar, tomato late blight, 150 ppm, protective
[8] = tested on: Pyricularia oryzae; assay: whole plant or invertebrate; format: in vivo; conditions: Pyricularia oryzae, foliar, 24 h, read-out: Percent Disease Control, curative, rice blast, 150 ppm, 24 hours after inoculation
[9] = tested on: Fusarium solani; assay: Soil treatment, bean root rot; format: in vivo; conditions: Fusarium solani, soil, 336 h; 150 ppm suspension, 3.8 mg active per pot; read-out: Percent Disease Control, seed/soil, bean root rot
Protocol: In a similar manner the soil around a bean seedling was drenched with a sufficient amount of 150 ppm suspension of test chemical to provide 3.8 mg active per pot. Twenty-four hours later the soil was inoculated with a suspension of minced mycelium of Fusarium solani. The inoculated plants were then placed in a greenhouse, evaluated after fourteen days, and percent control of root rot damage calculated. The results, reported in Table III, indicate only a few of the compounds tested are effective in treating Bean Root Rot but that these provide a high degree of control.

[10] = tested on: Helminthosporium oryzae; assay: Mycelial growth test; conditions: Bipolaris oryzae, 72 h
[11] = tested on: Uromyces phaseoli; assay: whole plant or invertebrate; conditions: foliar, read-out: Percent Disease Control, foliar, bean rust
[12] = tested on: Uromyces phaseoli; assay: whole plant or invertebrate; conditions: foliar, 24 h, read-out: Percent Disease Control, curative, bean rust
[13] = tested on: Erysiphe polygoni; assay: whole plant or invertebrate; conditions: foliar, 24 h, read-out: Percent Disease Control, curative, bean powdery mildew
[14] = tested on: Cercospora beticola; assay: whole plant or invertebrate; conditions: in Beta vulgaris, foliar, 24 h, read-out: Percent Disease Control, curative, sugar beet leaf spot

For O=c1c(Cl)nsnc1Cl [Compound 1, 3,5-dichloro-4H--1,2,6-thiadiazin-4-one], the inhibition at 2.5 ppm ([1]; 2.5 ppm) was 100%, the inhibition at 5 ppm ([1]; 5 ppm) was 100% and the inhibition at 10 ppm ([1]; 10 ppm) was 100%. The inhibition at 2.5 ppm ([2]; 2.5 ppm) was 85%, the inhibition at 5 ppm ([2]; 5 ppm) was 100% and the inhibition at 10 ppm ([2]; 10 ppm) was 100%. It also gave an inhibition at 2.5 ppm ([3]; 2.5 ppm) of 100%, an inhibition at 5 ppm ([3]; 5 ppm) of 100% and an inhibition at 10 ppm ([3]; 10 ppm) of 100%. The inhibition at 2.5 ppm ([4]; read-out: Percent Fungus Growth Inhibition, PO, 2.5 ppm, 72 hours) was 27%, the inhibition at 5 ppm ([4]; read-out: Percent Fungus Growth Inhibition, PO, 5 ppm, 72 hours) was 42% and the inhibition at 10 ppm ([4]; read-out: Percent Fungus Growth Inhibition, PO, 10 ppm, 72 hours) was 82%. The inhibition at 2.5 ppm ([5]; 2.5 ppm) was 0%, the inhibition at 5 ppm ([5]; 5 ppm) was 0% and the inhibition at 10 ppm ([5]; 10 ppm) was 100%. It also gave an inhibition at 2.5 ppm ([6]; 2.5 ppm) of 100%, an inhibition at 5 ppm ([6]; 5 ppm) of 64% and an inhibition at 10 ppm ([6]; 10 ppm) of 100%. For the same compound, the pest or weed control at 150 ppm [7] was 0%, the pest or weed control at 150 ppm [8] was 0% and the pest or weed control at 150 ppm, 3.8 mg/pot [9] was 0%. It also gave an inhibition at 2.5 ppm ([10]; read-out: Percent Fungus Growth Inhibition, HO, 2.5 ppm, 72 hours) of 100%, an inhibition at 5 ppm ([10]; read-out: Percent Fungus Growth Inhibition, HO, 5 ppm, 72 hours) of 100% and an inhibition at 10 ppm ([10]; read-out: Percent Fungus Growth Inhibition, HO, 10 ppm, 72 hours) of 100%. For the same compound, the pest or weed control at 150 ppm [11] was 0%, the pest or weed control at 150 ppm [12] was 0% and the pest or weed control at 150 ppm [13] was 0%. The pest or weed control at 150 ppm [14] was 0%.
